Holding throughout (format): in vivo
In test [1] the test system is Echinochloa crus-galli (ECHCG). Kind of test: Pre-emergence Test, Echinochloa crus-galli (ECHCG). Conditions: evaluated after 13 days.
The test system of test [2] is Zea mays (ZEAMX). Nature of the test: Pre-emergence Test, Zea mays (ZEAMX). The following applies: evaluated after 13 days.
Test [3] deals with Ipomoea hederacea (IPOHE). Nature of the test: Pre-emergence Test, Ipomoea hederacea (IPOHE). Conditions: evaluated after 13 days.
In test [4] the test system is Amaranthus palmeri (AMAPA). Nature of the test: Pre-emergence Test, Amaranthus palmeri (AMAPA). The following applies: evaluated after 13 days.
In test [5] the test system is Amaranthus retoflexus (AMARE). Nature of the test: Pre-emergence Test, Amaranthus retoflexus (AMARE). Conditions: evaluated after 13 days.
For the next test, the system named is Setaria faberi (SETFA). Kind of test: Post-emergence Test, Setaria faberi (SETFA). The arrangement: key to percentage damage caused to the plant, SETFA (five-point scale): 5=81-100%, 4=61-80%, 3=41-60%, 2=21-40%, 1=0-20% damage. The following applies: 1000 g/ha, evaluated after 13 days. The essentials: (§1)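 Tested at 1000 g/ha unless otherwise stated. Plants were held at 24/16 °C day/night with a 14 h light period. Percent damage was read at 13 days and reported in five bands.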

The test system of test [6] is Echinochloa crus-galli (ECHCG). Nature of the test: Post-emergence Test, Echinochloa crus-galli (ECHCG). Also on record: key to percentage damage caused to the plant, ECHCG (five-point scale): 5=81-100%, 4=61-80%, 3=41-60%, 2=21-40%, 1=0-20% damage. The following applies: 250 g/Ha, evaluated after 13 days. The method, boiled down:
as §1

For test [7], the system named is Zea mays (ZEAMX). Nature of the test: Post-emergence Test, Zea mays (ZEAMX). Also on record: key to percentage damage caused to the plant, ZEAMX (five-point scale): 5=81-100%, 4=61-80%, 3=41-60%, 2=21-40%, 1=0-20% damage. Conditions: evaluated after 13 days. The essentials: as §1
In test [8] the test system is Ipomoea hederacea (IPOHE). Kind of test: Post-emergence Test, Ipomoea hederacea (IPOHE). Also on record: key to percentage damage caused to the plant, IPOHE (five-point scale): 5=81-100%, 4=61-80%, 3=41-60%, 2=21-40%, 1=0-20% damage. Conditions: evaluated after 13 days. The essentials:
as §1

Test [9] deals with Amaranthus palmeri (AMAPA). Nature of the test: Post-emergence Test, Amaranthus palmeri (AMAPA). The arrangement: key: 5=81-100%, 4=61-80%, 3=41-60%, 2=21-40%, 1=0-20% damage. The following applies: evaluated after 13 days. The essentials: as §1
Test [10] relates to Amaranthus retoflexus (AMARE). Kind of test: Post-emergence Test, Amaranthus retoflexus (AMARE). The arrangement: key to percentage damage caused to the plant, AMARE (five-point scale): 5=81-100%, 4=61-80%, 3=41-60%, 2=21-40%, 1=0-20% damage. Conditions: evaluated after 13 days. The essentials: as §1

Regarding `CCn1c(Cn2ccc(COC)n2)cc(=O)c(C(=O)O)c1-c1ccc(Cl)c(Cl)c1` [Compound 162, 2-(3,4-dichlorophenyl)-1-ethyl-6-[[3-(methoxymethyl)pyrazol-1-yl]methyl]-4-oxo-pyridine-3-carboxylic acid], the “Pre-emergence Test ECHCG, percentage damage caused to the plant (five-point scale)” value was 3 (3=41-60%) in [1] (250 g/Ha (*)) and 5 (5=81-100%) in [1] (1000 g/ha). The entries for the “Pre-emergence Test ZEAMX, percentage damage caused to the plant (five-point scale)” value in the test with Zea mays (ZEAMX) [2] (250 g/Ha (*)) and in the test with Zea mays (ZEAMX) [2] (1000 g/ha) were 1 (1=0-20%) and 4 (4=61-80%), respectively. The “Pre-emergence Test IPOHE, percentage damage caused to the plant (five-point scale)” value is 1 (1=0-20%) in test [3] (250 g/Ha (*)) and 4 (4=61-80%) in test [3] (1000 g/ha). Also, the results for the “Pre-emergence Test AMAPA, percentage damage caused to the plant (five-point scale)” value in test [4] (250 g/Ha (*)) and in test [4] (1000 g/ha) were 0 and 1 (1=0-20%), respectively. For the same compound, the “Pre-emergence Test AMARE, percentage damage caused to the plant (five-point scale)” value is 1 (1=0-20%) in test [5] (250 g/Ha (*)) and 3 (3=41-60%) in test [5] (1000 g/ha). The “percentage damage caused to the plant, SETFA (five-point scale)” value in the test on Setaria faberi (SETFA) was 5 (5=81-100%). In test [6], the “percentage damage caused to the plant, ECHCG (five-point scale)” value was 3 (3=41-60%). Also, the “percentage damage caused to the plant, ZEAMX (five-point scale)” value with Zea mays (ZEAMX) [7] (250 g/Ha) was 1 (1=0-20%); with Zea mays (ZEAMX) [7] (1000 g/ha), 3 (3=41-60%). The figures for the “percentage damage caused to the plant, IPOHE (five-point scale)” value in test [8] (250 g/Ha) and in [8] (1000 g/ha) were 2 (2=21-40%) and 4 (4=61-80%), respectively. In addition, the “percentage damage caused to the plant, AMAPA (five-point scale)” value in test [9] (250 g/Ha) is recorded as 1 (1=0-20%); in test [9] (1000 g/ha) it was 2 (2=21-40%). For the same compound, the entries for the “percentage damage caused to the plant, AMARE (five-point scale)” value in test [10] (250 g/Ha) and in test [10] (1000 g/ha) were 1 (1=0-20%) and 2 (2=21-40%), respectively.
For the compound `CCn1c(Cn2ncc(C(F)(F)F)n2)cc(=O)c(C(=O)O)c1-c1ccc(Cl)c(Cl)c1` [Compound 189, 2-(3,4-dichlorophenyl)-1-ethyl-4-oxo-6-[[4-(trifluoromethyl)triazol-2-yl]methyl]pyridine-3-carboxylic acid], the “Pre-emergence Test ECHCG, percentage damage caused to the plant (five-point scale)” value in test [1] (250 g/Ha (*)) is 5 (5=81-100%). Further, in the test on Zea mays (ZEAMX) [2] (250 g/Ha (*)), the “Pre-emergence Test ZEAMX, percentage damage caused to the plant (five-point scale)” value is on record as 4 (4=61-80%). In addition, the “Pre-emergence Test IPOHE, percentage damage caused to the plant (five-point scale)” value in test [3] (250 g/Ha (*)) was 3 (3=41-60%). Also, in test [4] (250 g/Ha (*)), the “Pre-emergence Test AMAPA, percentage damage caused to the plant (five-point scale)” value is 2 (2=21-40%). In addition, in test [5] (250 g/Ha (*)), the “Pre-emergence Test AMARE, percentage damage caused to the plant (five-point scale)” value was 2 (2=21-40%). In addition, the “percentage damage caused to the plant, ECHCG (five-point scale)” value in test [6] is reported as 4 (4=61-80%). In addition, the “percentage damage caused to the plant, ZEAMX (five-point scale)” value with Zea mays (ZEAMX) [7] (250 g/Ha) was 4 (4=61-80%). The “percentage damage caused to the plant, IPOHE (five-point scale)” value in [8] (250 g/Ha) is listed as 4 (4=61-80%). Also, the “percentage damage caused to the plant, AMAPA (five-point scale)” value in test [9] (250 g/Ha) is on record as 5 (5=81-100%). Further, in test [10] (250 g/Ha), the “percentage damage caused to the plant, AMARE (five-point scale)” value is given as 4 (4=61-80%).

(Values after patent publication US20250098679A1, “HERBICIDAL PYRIDONE DERIVATIVES” (SYNGENTA CROP PROTECTION AG, priority 2021, published 2025).)
